One test concerns the target NDM-1 (Klebsiella pneumoniae, UniProt C7C422). The test can be described thus: biochemical. Format: biochemical. The following applies: read-out: NDM-1 IC50.
The subject of test [1] is Serratia marcescens expressing IMP-1 (CL5741). The test is described as follows: Antibiotic potentiation activity: synergistic concentration (MITC95) with imipenem, OD600 growth. Format: cell-based. The following applies: for Serratia marcescens expressing IMP-1 (CL5741) MITC95: concentration giving 95% inhibition of bacterial growth; for Serratia marcescens MITC95: 95% growth inhibition. The gist of the method:
(§1)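 Overnight colonies (35 °C) were suspended in saline, diluted 1:100 into 1.1× CAMHB, and exposed to test compound with imipenem at 4 μg/ml (optionally 1 μg/ml) in assay. After 22–24 h at 35 °C, growth was read by absorbance.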

Test [2] concerns Escherichia coli expressing NDM-1 (CLB30016). The test is described as above. Format: cell-based. The following applies: for Escherichia coli expressing NDM-1 (CLB 30016) MITC95: concentration giving 95% inhibition of bacterial growth; for Escherichia coli MITC95: 95% growth inhibition. The gist of the method: as §1
Test [3] has as its system Klebsiella pneumoniae expressing VIM-1 (IHMA599644). The test is described as above. Format: cell-based. The following applies: for Klebsiella pneumoniae expressing VIM-1 (IHMA 599644) MITC95: concentration giving 95% inhibition of bacterial growth; for Klebsiella pneumoniae MITC95: 95% growth inhibition. In a few lines: as §1
The target of the next test is VIM-1 (Pseudomonas aeruginosa (strain ATCC 15692 / DSM 22644 / CIP 104116 / JCM 14847 / LMG 12228 / 1C / PRS 101 / PAO1), UniProt A0A0F7KYQ8). The test is described as follows: Enzyme activity: determination of IC50, fluorescence assay with CCF2-FA substrate (VIM-1). It is filed as biochemical.
In the next test the target is IMP-1 (Serratia marcescens, UniProt P52699). The test can be described thus: biochemical. It is filed as biochemical. The following applies: read-out: IMP-1 IC50.
Chain of IMP-1 (P52699 whole entry, looked up): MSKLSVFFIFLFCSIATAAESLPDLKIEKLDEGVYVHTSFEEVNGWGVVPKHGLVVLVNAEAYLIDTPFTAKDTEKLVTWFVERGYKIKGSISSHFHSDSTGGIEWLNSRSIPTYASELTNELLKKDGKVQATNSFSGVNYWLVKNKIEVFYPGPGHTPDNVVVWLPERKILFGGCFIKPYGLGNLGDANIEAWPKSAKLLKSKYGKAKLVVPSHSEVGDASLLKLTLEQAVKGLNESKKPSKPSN
Where [4] appears, read: fluorescence assay with CCF2-FA substrate.
The mark [5] stands for this setting: fluorescence assay with CCF2-FA substrate, read-out: VIM-1 IC50.
Where [6] appears, read: NDM-1 enzyme, CCF2-FA substrate.
Where [7] appears, read: Serratia marcescens CL5741 (IMP-1).
[8] abbreviates: Klebsiella pneumoniae IHMA599644 (VIM-1).
Setting [9] is: IMP-1 enzyme, CCF2-FA substrate.
Where [10] appears, read: NDM-1 enzyme, CCF2-FA fluorescence assay.
[11] abbreviates: Serratia marcescens expressing IMP-1 (CL5741).
Setting [12] is: Escherichia coli expressing NDM-1 (CLB30016).
Setting [13] is: Klebsiella pneumoniae expressing VIM-1 (IHMA599644).
The mark [14] stands for this setting: VIM-1 enzyme, CCF2-FA fluorescence assay, read-out: VIM-1 IC50.
Where [15] appears, read: IMP-1 enzyme, CCF2-FA fluorescence assay.
Where [16] appears, read: VIM-1 enzyme, CCF2-FA substrate, read-out: VIM-1 IC50.

By IC50 is commonly meant the point on the concentration scale where inhibition reaches its midpoint.

SMILES strings stand for the structures. Read-outs that look alike come from different tables or passages of the source.

Chain of NDM-1 (C7C422 whole entry, looked up, species assumed): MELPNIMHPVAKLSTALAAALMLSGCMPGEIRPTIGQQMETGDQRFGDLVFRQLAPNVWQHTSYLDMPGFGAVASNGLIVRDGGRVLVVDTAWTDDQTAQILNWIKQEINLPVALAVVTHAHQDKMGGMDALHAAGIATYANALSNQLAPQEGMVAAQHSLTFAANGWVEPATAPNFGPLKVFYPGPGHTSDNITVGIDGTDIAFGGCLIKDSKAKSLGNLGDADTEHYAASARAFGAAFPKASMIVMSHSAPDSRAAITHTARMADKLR

With `N#Cc1cncc(-c2cccc(S(N)(=O)=O)c2-c2nnn[nH]2)c1` [Example 136, 3-(5-cyanopyridin-3-yl)-2-(1H-tetrazol-5-yl)benzenesulfonamide], the figures for the IC50 at NDM-1 (setting [4]), at VIM-1 (setting [5]) and on IMP-1 (setting [4]) were 24.8 nM, 150 nM and 1690 nM, respectively. Besides, the “Serratia marcescens expressing IMP-1 (CL5741) MITC95” value in test [1] worked out at 25 µM. Moreover, the “Escherichia coli expressing NDM-1 (CLB 30016) MITC95” value in test [2] stood at 1.563 µM. Moreover, in test [3], the “Klebsiella pneumoniae expressing VIM-1 (IHMA 599644) MITC95” value came to 37.5 µM.

For the compound `NC1CCC(N[C@H]2CC[C@H](c3ccc(C(F)(F)F)c(S(N)(=O)=O)c3-c3nnn[nH]3)CC2)C1` (stereo partly drawn) [Example 691, 3-{4-[(3-aminocyclopentyl)amino]cyclohexyl}-2-(1H-tetrazol-5-yl)-6-(trifluoromethyl)benzene sulfonamide], the IC50 at NDM-1 (setting [6]) was determined as 10.6 nM; at VIM-1 (VIM-1 IC50, VIM-1 enzyme, CCF2-FA substrate), 6.13 nM; at IMP-1 (setting [9]), 51.8 nM. Further, in test [1] (setting [7]), the “Serratia marcescens MITC95” value is 3.125 µM. The “Escherichia coli MITC95” value in test [2] ((CLB30016, NDM-1)) came to 0.7813 µM. The “Klebsiella pneumoniae MITC95” value in test [3] (setting [8]) came out at 3.125 µM.

For the compound `NS(=O)(=O)c1nccc(N2CCC(Cn3ccnc3)CC2)c1-c1nnn[nH]1` [Example 233, 4-[4-(1H-imidazol-1-ylmethyl)piperidin-1-yl]-3-(1H-tetrazol-5-yl)pyridine-2-sulfonamide], the IC50 was 60.9 nM at NDM-1 (setting [4]), 97.6 nM at VIM-1 (setting [5]) and 195 nM at IMP-1 (setting [4]). In addition, in test [1], the “Serratia marcescens expressing IMP-1 (CL5741) MITC95” value was determined as 6.25 µM. Further, the “Escherichia coli expressing NDM-1 (CLB 30016) MITC95” value in test [2] turned out to be 0.7813 µM. In addition, the “Klebsiella pneumoniae expressing VIM-1 (IHMA 599644) MITC95” value in test [3] amounted to 37.5 µM.

In the case of `NS(=O)(=O)c1c(C(F)(F)F)ccc(CC[C@H]2CC[C@@H](N)CC2)c1-c1nn[nH]n1` [Example 432, 3-(2-((1s,4r)-4-aminocyclohexyl)ethyl)-2-(2H-tetrazol-5-yl)-6-(trifluoromethyl)benzenesulfonamide], the IC50 on NDM-1 (setting [10]) is 47.9 nM; at VIM-1 (setting [14]), 4.72 nM; at IMP-1 (setting [15]), 11.7 nM. In addition, in test [1] (setting [11]), the “Serratia marcescens MITC95” value was found to be 0.3906 µM. Besides, the “Escherichia coli MITC95” value in test [2] (setting [12]) was 6.25 µM. The “Klebsiella pneumoniae MITC95” value in test [3] (setting [13]) worked out at 18.75 µM.

Regarding `NS(=O)(=O)c1c(C(F)(F)F)ccc(-c2ccc3c(c2)CNC3)c1-c1nn[nH]n1` [Example 441, 3-(isoindolin-5-yl)-2-(2H-tetrazol-5-yl)-6-(trifluoromethyl)benzenesulfonamide], the 50% inhibitory concentration (IC50) on NDM-1 (setting [10]) amounted to 11.3 nM; at VIM-1 (setting [14]), 0.838 nM; on IMP-1 (setting [15]), 22.1 nM. For the same compound, the “Serratia marcescens MITC95” value in test [1] (setting [11]) was 1.563 µM. Also, the “Escherichia coli MITC95” value in test [2] (setting [12]) is 1.172 µM. In addition, the “Klebsiella pneumoniae MITC95” value in test [3] (setting [13]) is 0.7813 µM.

As to `NS(=O)(=O)c1c(CC2CNC2)ccc(-c2cnc3ccccn23)c1-c1nn[nH]n1` [Example 546, 6-(azetidin-3-ylmethyl)-3-(imidazo[1,2-a]pyridin-3-yl)-2-(2H-tetrazol-5-yl)benzenesulfonamide], the figures for the IC50 at NDM-1 (setting [6]), at VIM-1 (setting [16]) and at IMP-1 (setting [9]) were 33.8 nM, 38.6 nM and 178 nM, respectively. Also, the “Serratia marcescens MITC95” value in test [1] (setting [7]) is 12.5 µM. Further, in test [2] ((CLB30016, NDM-1)), the “Escherichia coli MITC95” value turned out to be 1.563 µM. Besides, the “Klebsiella pneumoniae MITC95” value in test [3] (setting [8]) is 12.5 µM.

With `NS(=O)(=O)c1c(C(F)(F)F)ccc(-c2ccc(-c3c[nH]c(O)n3)cc2)c1-c1nnn[nH]1.O=C(O)C(F)(F)F` [Example 559, 3-[4-(2-hydroxy-1H-imidazol-4-yl)phenyl]-2-(1H-tetrazol-5-yl)-6-(trifluoromethyl)benzenesulfonamide], the IC50 at NDM-1 (setting [6]) worked out at 0.439 nM; on VIM-1 (setting [16]) it was 0.212 nM; on IMP-1 (setting [9]), 0.534 nM. Also, the “Serratia marcescens MITC95” value in test [1] (setting [7]) came out at 6.25 µM. The “Escherichia coli MITC95” value in test [2] ((CLB30016, NDM-1)) came out at 12.5 µM. For the same compound, the “Klebsiella pneumoniae MITC95” value in test [3] (setting [8]) amounted to 12.5 µM.

The values are drawn from US9708336B2, “Metallo-beta-lactamase inhibitors” (priority 2014, dated 2017).
